Patent publication US20050137251A1, “Dexanabinol and dexanabinol analogs regulate inflammation related genes” (priority 2002, published 2005)

Key:
[1] = molecular target: recombinant COX-2 (Homo sapiens, UniProt P35354); experiment: In vitro enzymatic activity of recombinant COX-2 (PGF2α EIA); type: biochemical; details: purified COX-2, test compounds up to 10 μM, 5 min preincubation, substrate AA
[2] = tested on: COX-2 gene expression; experiment: COX-2 gene expression in LPS stimulated RAW 264.7 cells, real-time RT-PCR; type: cell-based, mouse; details: 10 μM, 2.5 hrs after LPS activation
Method: RAW 264.7 macrophages, a mouse cell line (ATCC # TIB 71), were grown in Dulbecco's modified Eagle's medium (DMEM) with 4 mM L-glutamine adjusted to contain 1.5 g/L sodium bicarbonate, 4.5 g/L glucose, and 10% heat inactivated fetal bovine serum. Cells were grown in tissue culture flasks and seeded at appropriate density into 24 wells tissue culture plates. 0.5×10^6 Raw cells in one milliliter were stimulated with 2 μg/ml Lipopolysaccharide E. coli 055:B5 (DIFCO Laboratories). The mouse macrophages were pre-treated for one hour with controls or 10 μM of dexanabinol and its analogs, unless indicated otherwise, and later on activated with LPS.
The results of this experiment are expressed as fold activation of COX-2 over non-activated macrophages, after normalization to cyclophilin A expression. When cells are treated with vehicle only we observe a maximal 6-fold increase in COX-2 expression. A decrease of 67% in RNA levels of COX-2 is observed when the activation is carried out in presence of 10 μM dexanabinol.
To test if COX-2 is the sole gene whose transcription is affected by compounds of the invention, additional genes were further analyzed by real-time RT-PCR in the above-described model of activated macrophages. This part of the study was performed with PRS-211,092 at doses up to 20 μM.

[3] = tested on: COX-2 gene expression; experiment: COX-2 gene expression in LPS i.c.v. injected mice brains; type: in vivo; details: 20 mg/kg i.p., whole brain 6 hours after 100 ng LPS i.c.v.
[4] = tested on: IL-1β secretion; experiment: IL-1β secretion in LPS activated macrophages; type: cell-based; details: Mus musculus, Macrophage, read-out: IC50 for inhibition of IL-1β secretion
Excerpt: (§1) The technique used to quantify the amount of a given protein in a liquid sample, either tissue culture supernatant or body fluid, is based on Enzyme Linked ImmunoSorbent Assay (ELISA) methodology. Either commercially available or established in house, the assay is based on the capture of the protein of interest by specific antibodies bound to the bottom of an ELISA plate well. Unbound material is washed away, the captured protein is then exposed to a secondary antibody generally labeled with horseradish peroxidase (HRP) or alkaline phosphatase (ALP). Again the unbound material is washed away, the samples are then incubated with the appropriate substrate yielding a colorimetric reaction. The reaction is stopped and reading is carried out in a spectrophotometer at the appropriate wavelength. Samples are tested at least in duplicate and the appropriate standard curve, consisting of serial dilutions of the recombinant target protein, is incorporated on each plate. Concentration of the protein in the sample is calculated from the standard curve.
RAW 264.7 macrophages, a mouse cell line (ATCC # TIB 71), were grown in Dulbecco's modified Eagle's medium (DMEM) with 4 mM L-glutamine adjusted to contain 1.5 g/L sodium bicarbonate, 4.5 g/L glucose, and 10% heat inactivated fetal bovine serum. […]

[5] = tested on: IL-2 secretion; experiment: IL-2 secretion (ELISA) in activated Jurkat T cells; type: cell-based; details: Homo sapiens, supernatant 24 hours after activation, read-out: IC50 for inhibition of IL-2 secretion
Excerpt: as §1, with “Samples are tested at least in duplicate and the appropriate standard curve, consisting of serial dilutions of the recombinant target protein, is incorporated on each plate.” left out, “curve. […]” for “curve.”
In parallel, the supernatant from each well was collected 24 hours after the activation and analyzed for the presence of secreted IL-2 by ELISA. […] The absorbance measured at 450 nm is proportional to the concentration of IL-2 in the sample or standard. A standard curve is obtained by plotting the concentrations of recombinant IL-2 standards versus their absorbances. The IL-2 concentrations in experimental samples are then determined using the standard curve.

[6] = tested on: COX-2 gene expression; experiment: COX-2 gene expression in activated Jurkat T cells; type: cell-based, human; details: 10 μM, normalized to GAPDH
Method: II reverse transcriptase (Life Technologies).
The human acute lymphoma T cell line Jurkat (ATCC # TIB 152) was used to test the possible immunosuppressive effect of dexanabinol and its analogs on T cell activation. The Jurkat cells were grown in RPMI 1640 medium with 2 mM L-glutamine adjusted to contain 1.5 g/L sodium bicarbonate, 4.5 g/L glucose, 10 mM HEPES, 1.0 mM sodium pyruvate, and 10% heat inactivated fetal bovine serum. Cells were grown in tissue culture flasks and seeded at appropriate density into 24 wells tissue culture plates. 2×10^6 cells in one milliliter were stimulated using 10 ng/ml of PMA (Sigma) and 1 μM A23187 calcium ionophore (Sigma). […] The controls and test compounds were added at indicated concentrations one hour before stimulation.
In addition, we used this experimental system to test the impact of dexanabinol and its analogs on COX-2 gene expression. Following activation of Jurkat cells with PMA and calcium ionophore we obtained elevated COX-2 gene expression levels. The impact of the test compounds on COX-2 was assessed as previously described for IL-2. FIG. 2 depicts the results of this experiment as fold activation of COX-2 over non-activated T cells. The results are plotted after normalization to GAPDH expression. […]

[7] = tested on: carrageenan induced paw edema; experiment: Carrageenan induced paw edema; type: in vivo, mice; details: doses ranging from 0.2 to 0.5 mg/kg i.p., 3 hours after carrageenan
[8] = tested on: IL-6 gene expression; experiment: IL-6 gene expression in MCAo mice brains; details: 5 mg/kg i.v., 18 hrs following MCAo
[9] = tested on: iNOS gene expression; experiment: iNOS gene expression in MCAo mice brains; details: 5 mg/kg i.v., 18 hrs following MCAo
[10] = tested on: MCP-1 gene expression; experiment: MCP-1 gene expression in MCAo mice brains; details: 5 mg/kg i.v., 18 hours of MCAo
[11] = tested on: IL-10 gene expression; experiment: IL-10 gene expression in MCAo mice brains; details: 5 mg/kg i.v., 18 hours of MCAo

recombinant COX-2, sequence (P35354 18-604): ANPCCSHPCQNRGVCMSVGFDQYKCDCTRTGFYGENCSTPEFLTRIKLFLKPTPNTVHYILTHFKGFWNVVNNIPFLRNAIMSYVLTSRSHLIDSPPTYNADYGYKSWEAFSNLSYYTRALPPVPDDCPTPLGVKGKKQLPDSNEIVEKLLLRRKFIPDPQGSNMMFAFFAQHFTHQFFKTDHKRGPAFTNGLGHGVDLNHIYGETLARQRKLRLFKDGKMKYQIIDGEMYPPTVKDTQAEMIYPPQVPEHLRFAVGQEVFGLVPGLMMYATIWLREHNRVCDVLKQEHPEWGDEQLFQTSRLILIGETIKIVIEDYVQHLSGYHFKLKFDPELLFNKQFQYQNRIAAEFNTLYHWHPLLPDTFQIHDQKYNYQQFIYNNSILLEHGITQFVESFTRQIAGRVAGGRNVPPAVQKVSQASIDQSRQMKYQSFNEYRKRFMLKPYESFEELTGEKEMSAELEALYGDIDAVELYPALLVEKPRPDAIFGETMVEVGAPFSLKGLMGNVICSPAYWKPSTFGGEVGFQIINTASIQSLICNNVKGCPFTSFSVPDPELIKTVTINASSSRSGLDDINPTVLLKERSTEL

SMILES: CCCCCCC(C)(C)c1cc(O)c2c(c1)OC(C)(C)[C@H]1CC=C(CO)C[C@H]21 [dexanabinol, 1,1-dimethylheptyl-(3S,4S)-7-hydroxy-Δ^6-tetrahydrocannabinol]
- Inhibition of COX-2 enzymatic activity [1]: no inhibitory effect
- Decrease in RNA levels of COX-2 [2]: 67%
- Reduction in the level of COX-2 activation [3]: 53%
- IC50 [4]: 6 µM
- IC50 [5]: 8 µM
- Inhibition of COX-2 gene expression [6]: 88%
- Reduction in paw thickness [7]: about 29%
- Modulation of IL-6 gene expression [8]: not modulated
- Modulation of iNOS gene expression [9]: not modulated
- Reduction of MCP-1 gene expression increase vs vehicle [10]: 41%
- Further increase of IL-10 gene expression vs vehicle [11]: 4.4 fold
